{"source": "ChEMBL document CHEMBL4837223", "about": "“Anti-angiogenesis Function of Ononin via Suppressing the MEK/Erk Signaling Pathway” (J Nat Prod, 2021)", "key": {"[1]": {"tested_on": "HUVEC", "assay": "Induction of apoptosis in VEGF-stimulated HUVEC cells assessed as increase in early apoptotic cells at 250 nM measured after 48 hrs by AnnexinV-FITC/PI staining based flow cytometry", "assay_type": "functional, cell-based", "conditions": "Homo sapiens"}, "[2]": {"tested_on": "HUVEC", "assay": "Induction of apoptosis in VEGF-stimulated HUVEC cells assessed as increase in late apoptotic cells at 250 nM measured after 48 hrs by AnnexinV-FITC/PI staining based flow cytometry", "assay_type": "functional, cell-based", "conditions": "Homo sapiens"}, "[3]": {"tested_on": "HUVEC", "assay": "Induction of apoptosis in VEGF-stimulated HUVEC cells assessed as mitochondrial membrane potential alteration at 250 nM measured after 48 hrs by JC-1 staining based flow cytometry", "assay_type": "functional, cell-based", "conditions": "Homo sapiens"}, "[4]": {"tested_on": "HUVEC", "assay": "Induction of apoptosis in VEGF-stimulated HUVEC cells assessed as increase in Bax/Bcl2 ratio at 250 nM measured after 48 hrs by western blot analysis", "assay_type": "functional, cell-based", "conditions": "Homo sapiens"}, "[5]": {"tested_on": "HUVEC", "assay": "Induction of apoptosis in VEGF-stimulated HUVEC cells assessed as increase in cleaved caspase-3 protein expression at 250 nM measured after 48 hrs by western blot analysis", "assay_type": "functional, cell-based", "conditions": "Homo sapiens"}, "[6]": {"tested_on": "HUVEC", "assay": "Induction of apoptosis in VEGF-stimulated HUVEC cells assessed as increase in cleaved caspase-9 protein expression at 250 nM measured after 48 hrs by western blot analysis", "assay_type": "functional, cell-based", "conditions": "Homo sapiens"}, "[7]": {"tested_on": "HUVEC", "assay": "Antiangiogenic activity against VEGF-induced HUVEC cells assessed as reduction in cell migration at 5 uM measured after 48 hrs by Transwell assay", "assay_type": "functional, cell-based", "conditions": "Homo sapiens"}, "[8]": {"tested_on": "HUVEC", "assay": "Antiangiogenic activity against VEGF-induced HUVEC cells assessed as reduction in wound healing at 5 uM measured after 48 hrs by scratch-wound healing assay", "assay_type": "functional, cell-based", "conditions": "Homo sapiens"}, "[9]": {"tested_on": "HUVEC", "assay": "Antiangiogenic activity against VEGF-stimulated HUVEC cells assessed as reduction in number of sprouting tubules at 5 uM measured after 48 hrs by Matrigel assay based microscopic analysis", "assay_type": "functional, cell-based", "conditions": "Homo sapiens"}, "[10]": {"tested_on": "HUVEC", "assay": "Induction of apoptosis in VEGF-stimulated HUVEC cells at 5 uM measured after 48 hrs by AnnexinV-FITC/PI staining based flow cytometry", "assay_type": "functional, cell-based", "conditions": "Homo sapiens"}, "[11]": {"tested_on": "HUVEC", "assay": "Induction of apoptosis in VEGF-stimulated HUVEC cells assessed as mitochondrial membrane potential alteration at 5 uM measured after 48 hrs by JC-1 staining based flow cytometry", "assay_type": "functional, cell-based", "conditions": "Homo sapiens"}, "[12]": {"tested_on": "HUVEC", "assay": "Induction of apoptosis in VEGF-stimulated HUVEC cells assessed as increase in Cytochrome c protein expression at 5 uM measured after 48 hrs by DAPI staining based confocal microscopy", "assay_type": "functional, cell-based", "conditions": "Homo sapiens"}, "[13]": {"tested_on": "HUVEC", "assay": "Induction of apoptosis in VEGF-stimulated HUVEC cells assessed as increase in Bax/Bcl2 ratio at 5 uM measured after 48 hrs by western blot analysis", "assay_type": "functional, cell-based", "conditions": "Homo sapiens"}, "[14]": {"tested_on": "HUVEC", "assay": "Induction of apoptosis in VEGF-stimulated HUVEC cells assessed as increase in cleaved caspase-3 protein expression at 5 uM measured after 48 hrs by western blot analysis", "assay_type": "functional, cell-based", "conditions": "Homo sapiens"}, "[15]": {"tested_on": "HUVEC", "assay": "Downregulation of HIF-1alpha expression in VEGF-stimulated HUVEC cells at 5 uM measured after 48 hrs by western blot analysis", "assay_type": "functional, cell-based", "conditions": "Homo sapiens"}, "[16]": {"tested_on": "HUVEC", "assay": "Inhibition of VEGFR2 expression in VEGF-induced HUVEC cells at 5 uM incubated for 48 hrs by DAPI staining based confocal microscopy", "assay_type": "functional, cell-based", "conditions": "Homo sapiens"}, "[17]": {"tested_on": "HUVEC", "assay": "Cytotoxicity against HUVEC cells assessed as reduction in cell vaibility at 5 uM incubated for 48 hrs by MTT assay", "assay_type": "cell-based", "conditions": "human"}, "[18]": {"tested_on": "HUVEC", "assay": "Induction of apoptosis in VEGF-stimulated HUVEC cells assessed as increase in cleaved caspase-9 protein expression at 5 uM measured after 48 hrs by western blot analysis", "assay_type": "functional, cell-based", "conditions": "Homo sapiens"}, "[19]": {"tested_on": "HUVEC", "assay": "Downregulation of HIF-1alpha expression in VEGF-stimulated HUVEC cells at 5 uM measured after 48 hrs by DAPI staining based confocal microscopy", "assay_type": "functional, cell-based", "conditions": "Homo sapiens"}, "[20]": {"tested_on": "HUVEC", "assay": "Effect on HIF-1beta expression in VEGF-stimulated HUVEC cells at 5 uM measured after 48 hrs by western blot analysis", "assay_type": "functional, cell-based", "conditions": "Homo sapiens"}, "[21]": {"target": "Dual specificity mitogen-activated protein kinase kinase; MEK1/2 (Homo sapiens) (UniProt P36507+Q02750)", "sequence (P36507 whole entry, looked up)": "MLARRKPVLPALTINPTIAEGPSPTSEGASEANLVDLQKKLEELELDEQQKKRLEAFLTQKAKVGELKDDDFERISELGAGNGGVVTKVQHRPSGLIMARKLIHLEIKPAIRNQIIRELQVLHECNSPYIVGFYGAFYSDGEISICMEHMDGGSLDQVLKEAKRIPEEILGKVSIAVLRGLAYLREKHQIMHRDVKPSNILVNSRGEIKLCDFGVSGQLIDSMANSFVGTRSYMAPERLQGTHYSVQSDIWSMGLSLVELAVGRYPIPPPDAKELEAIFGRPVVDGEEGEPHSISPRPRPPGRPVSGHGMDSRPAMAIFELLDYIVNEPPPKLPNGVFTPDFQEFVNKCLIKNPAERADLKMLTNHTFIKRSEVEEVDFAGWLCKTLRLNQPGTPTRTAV", "sequence (Q02750 whole entry, looked up)": "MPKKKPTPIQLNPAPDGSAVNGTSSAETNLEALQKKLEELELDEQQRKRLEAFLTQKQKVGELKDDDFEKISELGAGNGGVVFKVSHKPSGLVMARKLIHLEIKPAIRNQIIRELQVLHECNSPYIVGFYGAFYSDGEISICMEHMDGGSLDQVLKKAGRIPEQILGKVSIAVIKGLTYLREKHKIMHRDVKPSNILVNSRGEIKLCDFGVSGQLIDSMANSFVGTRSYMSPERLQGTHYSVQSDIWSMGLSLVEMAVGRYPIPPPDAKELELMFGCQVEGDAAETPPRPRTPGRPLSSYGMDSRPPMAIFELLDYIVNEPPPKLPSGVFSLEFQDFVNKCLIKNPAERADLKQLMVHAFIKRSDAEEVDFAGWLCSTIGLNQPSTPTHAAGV", "assay": "Inhibition of MEK1/2 in VEGF-stimulated HUVEC cells assessed as reduction in phosphorylated MEK1/2 level at 5 uM incubated for 48 hrs by immunoblot analysis", "assay_type": "cell-based"}, "[22]": {"target": "Mitogen-activated protein kinase; ERK1/ERK2 (Homo sapiens) (UniProt P27361+P28482)", "sequence (P27361 whole entry, looked up)": "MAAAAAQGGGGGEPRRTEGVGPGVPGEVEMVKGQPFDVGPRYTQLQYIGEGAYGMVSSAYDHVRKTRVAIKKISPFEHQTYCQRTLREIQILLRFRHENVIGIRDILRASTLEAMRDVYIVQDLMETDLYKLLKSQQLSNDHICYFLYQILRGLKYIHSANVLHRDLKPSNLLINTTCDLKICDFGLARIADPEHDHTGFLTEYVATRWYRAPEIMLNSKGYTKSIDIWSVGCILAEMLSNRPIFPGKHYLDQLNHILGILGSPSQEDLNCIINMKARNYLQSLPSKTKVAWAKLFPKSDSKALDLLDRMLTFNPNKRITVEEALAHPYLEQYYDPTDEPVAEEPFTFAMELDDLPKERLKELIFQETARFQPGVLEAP", "sequence (P28482 whole entry, looked up)": "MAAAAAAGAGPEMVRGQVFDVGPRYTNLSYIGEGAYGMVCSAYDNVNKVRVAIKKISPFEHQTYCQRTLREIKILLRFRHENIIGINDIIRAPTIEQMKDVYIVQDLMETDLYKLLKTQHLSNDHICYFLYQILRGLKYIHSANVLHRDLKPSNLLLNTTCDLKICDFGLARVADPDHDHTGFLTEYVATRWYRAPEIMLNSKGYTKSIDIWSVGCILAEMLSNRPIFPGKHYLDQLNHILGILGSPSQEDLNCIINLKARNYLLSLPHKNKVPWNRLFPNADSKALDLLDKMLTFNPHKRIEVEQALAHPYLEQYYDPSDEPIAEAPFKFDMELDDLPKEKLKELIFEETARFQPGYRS", "assay": "Inhibition of ERK1/2 in VEGF-stimulated HUVEC cells assessed as reduction in phosphorylated […] at 5 uM incubated for 48 hrs by immunoblot analysis", "assay_type": "cell-based"}}, "note": "Calls of active or inactive are those of the source. No cut-off for these calls is given here.", "data": [{"compound": "CN[C@@H]1C[C@H]2O[C@@](C)([C@@H]1OC)n1c3ccccc3c3c4c(c5c6ccccc6n2c5c31)C(=O)NC4", "values": [{"measurement": "Activity", "setting": "[1]", "value": "Active"}, {"measurement": "Activity", "setting": "[2]", "value": "Active"}, {"measurement": "Activity", "setting": "[3]", "value": "Active"}, {"measurement": "Activity", "setting": "[4]", "value": "Active"}, {"measurement": "Activity", "setting": "[5]", "value": "Active"}, {"measurement": "Activity", "setting": "[6]", "value": "Active"}]}, {"compound": "COc1ccc(-c2coc3cc(O[C@@H]4O[C@H](CO)[C@@H](O)[C@H](O)[C@H]4O)ccc3c2=O)cc1", "note": "[ONONIN]", "values": [{"measurement": "Activity", "setting": "[7]", "value": "Active"}, {"measurement": "Activity", "setting": "[8]", "value": "Active"}, {"measurement": "Activity", "setting": "[9]", "value": "Active"}, {"measurement": "Activity", "setting": "[10]", "value": "Active"}, {"measurement": "Activity", "setting": "[11]", "value": "Active"}, {"measurement": "Activity", "setting": "[12]", "value": "Active"}, {"measurement": "Activity", "setting": "[13]", "value": "Active"}, {"measurement": "Activity", "setting": "[14]", "value": "Active"}, {"measurement": "inhibition", "setting": "[15]", "value": "Active"}, {"measurement": "inhibition", "setting": "[16]", "value": "Active"}, {"measurement": "Activity", "setting": "[17]", "value": "Non-Toxic"}, {"measurement": "Activity", "setting": "[18]", "value": "Active"}, {"measurement": "inhibition", "setting": "[19]", "value": "Active"}, {"measurement": "Activity", "setting": "[20]", "value": "inactive"}, {"measurement": "inhibition", "setting": "[21]", "value": "Active"}, {"measurement": "inhibition", "setting": "[22]", "value": "Active"}]}]}
